# Residues, ends and D or L forms follow the SMILES beside them.
# Legend:
# [1] = tested on: normal human epidermal keratinocytes (NHEKs); assay: LDH release cytotoxicity assay in keratinocytes; type: cell-based; conditions: minimal concentration giving 50% LDH release by NHEKs
# How it was run: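 Normal human epidermal keratinocytes were exposed to LL-34 parent and alanine-substituted peptides. Cytotoxicity was read as LDH release in fresh culture supernatants after treatment, using a commercial kit, and reported as the minimal concentration showing toxicity.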
# [2] = tested on: U1 dsRNA binding on the surface of NHEKs; assay: Surface binding of Alexa 488-labeled U1 dsRNA to NHEKs; type: cell-based, human; conditions: Alexa 488 U1 0.05-10 μg/ml + peptide 2.5 μM, 10 min on ice; fluorometer RFU, n = 3
# Procedure: We also assayed the dynamics of binding of U1 dsRNA on the surface of NHEKs in the presence of LL-34 mutant peptides. NHEKs were exposed to fluorescent Alexa 488–labeled U1 at increasing concentrations (0.05–10 μg/ml) and LL-34 parent peptide, LL-34 I24A, LL-34 L31A, LL-34 K25A, and LL-34 proline at isoleucine position 20 (I20P) for 10 min on ice to allow for surface binding of U1 to cells in the presence of peptides (Fig. 5A).
# Figure 5 Biophysical properties of binding of U1 dsRNA to LL-34 peptides and SRB1 protein.A, NHEKs were treated with Alexa 488–labeled U1 dsRNA or a combination of Alexa 488–labeled U1 dsRNA (0.05–10 μg/ml) and LL-34 peptides LL-34 parent, LL-34 I24A, LL-34 K25A, LL-34 L31A, and LL-34 I20P at 2.5 μM as shown. The cells were prechilled on ice for 15 min before the addition of U1 dsRNA and/or LL-34 peptides, and the surface binding of U1 dsRNA was allowed for 10 min. The amount of U1 dsRNA binding to NHEKs was assessed with a fluorometer, and data are represented as relative fluorescence units (RFUs) (n = 3). B, NHEKs were similarly treated with Alexa-labeled U1 dsRNA (1.5 μg/ml) and/or unlabeled U1 dsRNA (15 μg/ml) with the addition of LL-34 parent peptide at 2.5 μM. The experiment was performed on ice for 10 min, and the relative binding of Alexa 488 U1 dsRNA was assessed on a fluorometer and is shown as RFU (n = 3) (∗p < 0.05) one-way ANOVA. C, SAXS spectra of LL-34 peptides LL-34 parent, LL-34 F5A, LL-34 I24A, and LL-34 L31A incubated with U1 dsRNA. The peptide-U1 dsRNA (P/R) ratio is varied at 1 and 2 for all conditions. The U1 dsRNA interhelical spacing (Q) was calculated by the peak position. The domain size (L) was calculated by the full width at half maximum of the first peak. LL-34, 34-amino acid peptide; NHEKs, normal human epidermal keratinocytes; SAXS, small-angle X-ray scattering.
smiles,measurement,setting,value
CC[C@H](C)[C@H](NC(=O)[C@H](CCCCN)NC(=O)[C@H](CCC(=O)O)NC(=O)[C@H](CCCCN)NC(=O)[C@H](CO)NC(=O)[C@H](CCCCN)NC(=O)[C@H](CCCNC(=N)N)NC(=O)[C@H](Cc1ccccc1)NC(=O)[C@H](Cc1ccccc1)NC(=O)[C@H](CC(=O)O)NC(=O)CNC(=O)[C@H](CC(C)C)NC(=O)[C@@H](N)CC(C)C)C(=O)NCC(=O)N[C@@H](CCCCN)C(=O)N[C@@H](CCC(=O)O)C(=O)N[C@@H](Cc1ccccc1)C(=O)N[C@@H](CCCCN)C(=O)N[C@@H](CCCNC(=N)N)C(=O)N[C@H](C(=O)N[C@H](C(=O)N[C@@H](CCC(N)=O)C(=O)N[C@@H](CCCNC(=N)N)C(=O)N[C@H](C(=O)N[C@@H](C)C(=O)N[C@@H](CC(=O)O)C(=O)N[C@@H](Cc1ccccc1)C(=O)N[C@@H](CC(C)C)C(=O)N[C@@H](CCCNC(=N)N)C(=O)N[C@@H](CC(N)=O)C(=O)N[C@@H](CC(C)C)C(=O)N[C@H](C(=O)N1CCC[C@H]1C(=O)N[C@@H](CCCNC(=N)N)C(=O)O)C(C)C)[C@@H](C)CC)C(C)C)[C@@H](C)CC [LL-34—K25A] (H-LLGDFFRKSKEKIGKEFKRIVQRIADFLRNLVPR-OH),Minimal cytotoxic concentration in NHEK (LD50),[1],10 µM
same,Binding of Alexa 488-labeled U1 dsRNA on the NHEK cell surface,[2],enhanced binding of U1 on the cell surface

# Source: publication PMC8214221, “Sequence determinants in the cathelicidin LL-37 that promote inflammation via presentation of RNA to scavenger receptors” (The Journal of Biological Chemistry, 2021)
